The values that follow are results of earlier work, collected in patent US20250041383A1, “MODIFIED CAVEOLIN-1 PEPTIDES FOR THE TREATMENT OF POST-ACUTE COVID-19” (priority 2021, published 2025).

Ends that are not written are not given here.

The subject of the data set is lung. Particulars: treatment with the CSP 20-mer; literature.

For “DGIWKASFTTFTVTKYWFYR (not fully specified) [CSP 20-mer, the full-length CSD of caveolin-1, amino acids 82-101]”, the collagen deposition entry is “reduced”, the “expression of profibrogenic signaling molecules” value is given as “down-regulation”, the “lung aSMA” value was “reduced” and the lung epithelial apoptosis entry is reported as “reduced”.
